ChEMBL document CHEMBL3046898, “Synthesis and characterization of flurbiprofen hydrazide derivatives as potential anti-HCV, anticancer and antimicrobial agents” (2013)
Activity calls are given as the source filed them. The calls are words filed in the database; no cut-off is given here.

How the values were obtained:
[1] = tested on: Staphylococcus cohnii; test: Antibacterial activity against Staphylococcus cohnii at 200 ug/disc after 24 hrs by disc diffusion method; assay type: functional, organism-based
[2] = tested on: Staphylococcus aureus; test: Antibacterial activity against Staphylococcus aureus at 200 ug/disc after 24 hrs by disc diffusion method; assay type: functional, organism-based
[3] = tested on: Hepacivirus hominis; test: Inhibition of HCV N-terminal His-tagged NS5B RNA dependent RNA polymerase expressed in Escherichia coli DH5alpha using poly rA/U12 as primer at 200 uM after 60 mins by liquid scintillation counting
[4] = tested on: Staphylococcus cohnii; test: Antibacterial activity against Staphylococcus cohnii at 6.25 to 200 ug/ml after 24 hrs by microwell dilution assay; assay type: functional, organism-based
[5] = tested on: Candida albicans; test: Antifungal activity against Candida albicans at 10 mg/ml after 48 hrs by disc diffusion method; assay type: functional, organism-based
[6] = tested on: Pichia membranifaciens; test: Antifungal activity against Pichia membranifaciens at 10 mg/ml after 48 hrs by disc diffusion method; assay type: functional, organism-based
[7] = tested on: Pseudomonas aeruginosa; test: Antibacterial activity against Pseudomonas aeruginosa at 10 mg/ml after 24 hrs by disc diffusion method; assay type: functional, organism-based
[8] = tested on: Salmonella paratyphi; test: Antibacterial activity against Salmonella paratyphi at 10 mg/ml after 24 hrs by disc diffusion method; assay type: functional, organism-based; conditions: Salmonella enterica subsp. enterica serovar Paratyphi A
[9] = tested on: Candida tropicalis; test: Antifungal activity against Candida tropicalis at 10 mg/ml after 48 hrs by disc diffusion method; assay type: functional, organism-based
[10] = tested on: T47D; test: Cytotoxicity against human T47D assessed as cell growth at 10 uM after 48 hrs by SRB assay; assay type: functional; conditions: read-out: Activity
[11] = tested on: Micrococcus lylae; test: Antibacterial activity against Micrococcus lylae at 10 mg/ml after 24 hrs by disc diffusion method; assay type: functional, organism-based
[12] = tested on: Photorhabdus luminescens; test: Antibacterial activity against Photorhabdus luminescens at 6.25 to 200 ug/ml after 24 hrs by microwell dilution method; assay type: functional, organism-based
[13] = tested on: Staphylococcus aureus; test: Antibacterial activity against Staphylococcus aureus at 6.25 to 200 ug/ml after 24 hrs by microwell dilution assay; assay type: functional, organism-based
[14] = tested on: Kluyveromyces marxianus; test: Antifungal activity against Kluyveromyces marxianus at 10 mg/ml after 48 hrs by disc diffusion method; assay type: functional, organism-based
[15] = tested on: SR; test: Cytotoxicity against human SR assessed as cell growth at 10 uM after 48 hrs by SRB assay; assay type: functional; conditions: read-out: Activity
[16] = tested on: Micrococcus luteus; test: Antibacterial activity against Micrococcus luteus at 10 mg/ml after 24 hrs by disc diffusion method; assay type: functional, organism-based
[17] = tested on: Schwanniomyces occidentalis; test: Antifungal activity against Schwanniomyces occidentalis at 10 mg/ml after 48 hrs by disc diffusion method; assay type: functional, organism-based
[18] = tested on: Escherichia coli; test: Antibacterial activity against Escherichia coli at 6.25 to 200 ug/ml after 24 hrs by microwell dilution method; assay type: functional, organism-based
[19] = tested on: Escherichia coli; test: Antibacterial activity against Escherichia coli at 10 mg/ml after 24 hrs by disc diffusion method; assay type: functional, organism-based
[20] = tested on: Klebsiella aerogenes; test: Antibacterial activity against Enterobacter aerogenes at 6.25 to 200 ug/ml after 24 hrs by microwell dilution method; assay type: functional, organism-based
[21] = tested on: Staphylococcus aureus; test: Antibacterial activity against Staphylococcus aureus at 10 mg/ml after 24 hrs by disc diffusion method; assay type: functional
[22] = tested on: Proteus vulgaris; test: Antibacterial activity against Proteus vulgaris at 10 mg/ml after 24 hrs by disc diffusion method; assay type: functional, organism-based
[23] = tested on: Nakaseomyces glabratus; test: Antifungal activity against Candida glabrata at 10 mg/ml after 48 hrs by disc diffusion method; assay type: functional, organism-based
[24] = tested on: Pseudomonas aeruginosa; test: Antibacterial activity against Pseudomonas aeruginosa at 6.25 to 200 ug/ml after 24 hrs by microwell dilution method; assay type: functional, organism-based
[25] = tested on: Micrococcus lylae; test: Antibacterial activity against Micrococcus lylae at 6.25 to 200 ug/ml after 24 hrs by microwell dilution method; assay type: functional, organism-based
[26] = tested on: Acinetobacter radioresistens; test: Antibacterial activity against Acinetobacter radioresistens at 6.25 to 200 ug/ml after 24 hrs by microwell dilution method; assay type: functional, organism-based
[27] = tested on: Aspergillus; test: Antifungal activity against Aspergillus at 10 mg/ml after 72 hrs by disc diffusion method; assay type: functional, organism-based
[28] = tested on: Acinetobacter radioresistens; test: Antibacterial activity against Acinetobacter radioresistens at 10 mg/ml after 24 hrs by disc diffusion method; assay type: functional, organism-based
[29] = tested on: Salmonella paratyphi; test: Antibacterial activity against Salmonella paratyphi at 6.25 to 200 ug/ml after 24 hrs by microwell dilution method; assay type: functional, organism-based; conditions: Salmonella enterica subsp. enterica serovar Paratyphi A
[30] = tested on: Klebsiella aerogenes; test: Antibacterial activity against Enterobacter aerogenes at 10 mg/ml after 24 hrs by disc diffusion method; assay type: functional, organism-based
[31] = tested on: Micrococcus luteus; test: Antibacterial activity against Micrococcus luteus at 6.25 to 200 ug/ml after 24 hrs by microwell dilution method; assay type: functional, organism-based
[32] = tested on: Staphylococcus cohnii; test: Antibacterial activity against Staphylococcus cohnii at 10 mg/ml after 24 hrs by disc diffusion method; assay type: functional
[33] = tested on: Candida parapsilosis; test: Antifungal activity against Candida parapsilosis at 10 mg/ml after 48 hrs by disc diffusion method; assay type: functional, organism-based
[34] = tested on: Photorhabdus luminescens; test: Antibacterial activity against Photorhabdus luminescens at 10 mg/ml after 24 hrs by disc diffusion method; assay type: functional, organism-based
[35] = tested on: Proteus vulgaris; test: Antibacterial activity against Proteus vulgaris at 6.25 to 200 ug/ml after 24 hrs by microwell dilution method; assay type: functional, organism-based

## CC1(C)S[C@@H]2[C@H](NC(=O)[C@H](N)c3ccccc3)C(=O)N2[C@H]1C(=O)O
[1]
  Activity: inactive
[2]
  Activity: inactive

## COc1ccc(/C=N/NC(=O)C(C)c2ccc(-c3ccccc3)c(F)c2)cc1 (stereo not given)
[3]
  inhibition: 8%
[4]
  Activity: inactive
[5]
  Activity: inactive
[6]
  Activity: inactive
[7]
  Activity: inactive
[8]
  Activity: inactive
[9]
  Activity: inactive
[10]
  growth at 10 µM: 57.4%
[11]
  Activity: inactive
[12]
  Activity: inactive
[13]
  Activity: inactive
[14]
  Activity: inactive
[15]
  growth at 10 µM: 46%
[16]
  Activity: inactive
[17]
  Activity: inactive
[18]
  Activity: inactive
[19]
  Activity: inactive
[20]
  Activity: inactive
[21]
  Activity: inactive
[22]
  Activity: inactive
[23]
  Activity: inactive
[24]
  Activity: inactive
[25]
  Activity: inactive
[26]
  Activity: inactive
[27]
  Activity: inactive
[28]
  Activity: inactive
[29]
  Activity: inactive
[30]
  Activity: inactive
[31]
  Activity: inactive
[32]
  Activity: inactive
[33]
  Activity: inactive
[34]
  Activity: inactive
[35]
  Activity: inactive
